From US20230104124A1, “N-PALMITOYLETHANOLAMIDE AND DOCOSAHEXAENOIC ACID FOR USE IN THE TREATMENT OF AUTISM SPECTRUM DISORDER AND OTHER DEPRESSIVE SYNDROMES” (EPITECH GROUP S.P.A., priority 2021, published 2023)

How the values were obtained:
BTBR mice [1] = test: Self Grooming test in BTBR mice; assay type: in vivo; conditions: monitored for 20 minutes, per os daily for 10 days, PEA-um 1 mg/kg, DHA 5 mg/kg (30 mg/kg DHA 17% titer)
Text: (§1) Healthy male C57BL/6J (C57) mice and 90-day BTBR T+tf/J (BTBR) mice (The Jackson Laboratory, Bar Harbor, ME, USA) fed ad libitum and housed in controlled sleep/wake cycle cages were used in the in vivo trial. Before the start of the experimentation, the animals were subjected to an acclimatization period of 1 week considering all the experimental procedures and protocols, compliant with the principles of care and welfare of laboratory animals approved by the Italian Ministry of Health (Italian Legislative Decree 2014/26) and European directives (EU Directive 2010/63). […]
(§2) All the values reported in the results are expressed as mean ± standard error of the mean (SEM) of N observations (N = number of animals). The statistical differences in the ALLO dosage and behavioral score were analyzed with one-way ANOVA, followed by Sidak’s multiple comparisons. […]
In the Self Grooming test, the mice were placed in an empty plexiglass cage (30x40 cm) and allowed to freely explore the arena. After 10 minutes of acclimatization, self grooming activity was monitored for 20 minutes. […]

plasma ALLO levels = test: Plasma ALLO neurosteroid levels in BTBR mice; assay type: in vivo; conditions: plasma 10 days after starting daily per os treatment, PEA-um 1 mg/kg, DHA 5 mg/kg (30 mg/kg DHA 17% titer)
Text: as §1, §2

[2] = tested on: mice with a simil-autistic phenotype; conditions: cited from earlier work
BTBR mice [3] = test: Marble Burying test in BTBR mice; assay type: in vivo; conditions: per os daily for 10 days, PEA-um 1 mg/kg, DHA 5 mg/kg (30 mg/kg DHA 17% titer), 8 animals per group
Text: as §1, §2

C57 mice = test: Sociability, three-chamber test in healthy C57 mice; assay type: in vivo; conditions: per os daily for 10 days, PEA-um 1 mg/kg, DHA 5 mg/kg (30 mg/kg DHA 17% titer)
Text: as §1, §2
(§3) In the last 10-minute phase, the preference of the mouse in staying in the empty chamber or in the presence of the mouse was evaluated (Crawley JN, Designing mouse behavioral tasks relevant to autistic-like behaviors, Ment. Retard Dev. Disabil. Res. Rev. 2004, 10: 248-258). The time spent in each chamber was detected by a camera coupled to video tracking software.

BTBR mice [4] = test: Sociability, three-chamber test in BTBR mice; assay type: in vivo; conditions: per os daily for 10 days, PEA-um 1 mg/kg, DHA 5 mg/kg (30 mg/kg DHA 17% titer)
Text: as §1, §2, §3

autistic children = conditions: PEA-um 600 mg/day, 3-month treatment; cited from earlier work
[5] = intravenous infusion; during the 60 hours of administration; cited from earlier work

Structure (SMILES) | Time spent self-grooming (repetitive behavior) (BTBR mice [1]) | Plasma ALLO levels (plasma ALLO levels) | Altered behavioral status [2] | Expression of pro-inflammatory hippocampal and serum cytokines IL-6, IL-1b and TNF-a [2] | Number of marbles buried in 15 min (obsessive behavior) (BTBR mice [3]) | Sociability (time spent in empty chamber or chamber occupied by a mouse) (C57 mice) | Sociability (time spent in empty chamber or chamber occupied by a mouse) (BTBR mice [4]) | Clinical effect on autistic symptoms (autistic children) | Risks during administration [5]
CCCCCCCCCCCCCCCC(=O)NCCO [PEA-um, N-palmitoylethanolamide] | did not demonstrate any reduction in the time (s) spent self-grooming | significant reduction in plasma ALLO levels | modulating the altered behavioral status | reducing the expression of the pro-inflammatory hippocampal and serum cytokines IL-6, IL-1b and TNF-a | obsessively bury the marbles | enhanced sociability to another mouse | did not demonstrate social improvements | improves aggressiveness, cognitive and behavioral skills, and communication | 
CC(=O)[C@H]1CC[C@H]2[C@@H]3CC[C@H]4C[C@H](O)CC[C@]4(C)[C@H]3CC[C@]12C [Zulresso, allopregnanolone] |  |  |  |  |  |  |  |  | risk of excessive sedation, sudden loss of consciousness or dizziness
